Like-named read-outs stand apart in the source and are kept apart here.
How the values were obtained:
primary rat microglia [1] = assay: Cell toxicity (dead cells, size <150 μm2) in LPS assay
[2] = tested on: LPS-induced microglia activation; assay: Image-based assay of LPS-induced microglia activation (HTS and dose response); type: cell-based, rat; conditions: for inhibition at 10 µM: Rattus norvegicus, Microglia, read-out: LPS % inhibition
[3] = tested on: fibrin- and LPS-induced microglia activation; assay: cells; type: cell-based, rat
primary rat microglia [4] = assay: Cell toxicity (dead cells, size <150 μm2) in coated fibrin (cFib) assay;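 further: share of dead cells sized under 150 µm2 at 10 µM in fibrin-stimulated microglia HTS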
[5] = tested on: fibrin-induced microglia activation; assay: Image-based assay of fibrin-induced microglia activation (HTS and dose response); type: cell-based, rat; conditions: for inhibition at 10 µM: Rattus norvegicus, Microglia, read-out: Fibrin % inhibition
[6] = primary microglia HTS, 10 μM, LPS assay, cell size <150 μm^2 as marker of toxicity
[7] = primary microglia HTS, 10 μM, LPS-stimulated, cell size >800 μm^2 as marker of activation
[8] = HTS of 1907 compounds, quadrant by fibrin and LPS inhibition
[9] = primary microglia HTS, 10 μM, fibrin assay, cell size <150 μm^2 as marker of toxicity
[10] = primary microglia HTS, 10 μM, fibrin-stimulated, cell size >800 μm^2 as marker of activation
[11] = primary HTS, 10 μM, LPS assay, dead cells size <150 μm2
[12] = primary HTS, 10 μM, LPS-stimulated primary microglia
[13] = primary HTS, 10 μM, fibrin assay, dead cells size <150 μm2
[14] = primary HTS, 10 μM, fibrin-stimulated primary microglia
[15] = primary microglia HTS, LPS stimulation, toxicity = cell size <150 μm2
[16] = 48 h, primary microglia HTS, LPS stimulation, activation = cell size >800 μm2
[17] = quadrant by fibrin and LPS inhibition in HTS of 1907 compounds
[18] = primary microglia HTS, fibrin stimulation, toxicity = cell size <150 μm2
[19] = primary microglia HTS, fibrin stimulation, activation = cell size >800 μm2
[20] = primary microglia HTS, LPS stimulation, decreased size (<150 μm^2) as marker of toxicity
[21] = 48 h, primary microglia HTS, LPS stimulation, increased cell size (>800 μm^2) as marker of activation
[22] = primary microglia HTS, fibrin stimulation, decreased size (<150 μm^2) as marker of toxicity
[23] = primary microglia HTS, fibrin stimulation, increased cell size (>800 μm^2) as marker of activation

Tyloxapol
LPS % cell toxicity (primary rat microglia [1]; [6]): 0% | LPS % inhibition [2, 7]: 17% | Quadrant (FIG. 5b) [3, 8]: Q4 | Fibrin % cell toxicity (primary rat microglia [4]; [9]): 1% | Fibrin % inhibition [5, 10]: −1%

CO/N=C(\C(=O)N[C@@H]1C(=O)N2C(C(=O)O)=C(COC(C)=O)CS[C@H]12)c1csc(N)n1 [Cefotaxime Sodium]
LPS % cell toxicity (primary rat microglia [1]; [11]): 0% | LPS % inhibition [2, 12]: 3% | Quadrant (FIG. 5b) ([3]; primary HTS, 10 μM): Q4 | Fibrin % cell toxicity (primary rat microglia [4]; [13]): 0% | Fibrin % inhibition [5, 14]: −1%

CC(=O)OCC(COC(C)=O)OC(C)=O [Triacetin]
LPS % cell toxicity (primary rat microglia [1]; [6]): 0% | inhibition at 10 µM [2, 7]: 15% | Quadrant (FIG. 5b) [3, 8]: Q4 | Fibrin % cell toxicity (primary rat microglia [4]; [9]): 1% | inhibition at 10 µM [5, 10]: -32%

NNC(=O)c1ccncc1 [Isoniazid]
LPS % cell toxicity (primary rat microglia [1]; [15]): 0% | inhibition at 10 µM [2, 16]: 19% | Quadrant (FIG. 5b) [3, 17]: Q4 | Fibrin % cell toxicity (primary rat microglia [4]; [18]): 1% | inhibition at 10 µM [5, 19]: -29%

CCCC(C)(COC(N)=O)COC(=O)NC(C)C (centres unmarked) [Carisoprodol]
LPS % cell toxicity (primary rat microglia [1]; [11]): 0% | inhibition at 10 µM [2, 12]: -1% | Quadrant (FIG. 5b) ([3]; primary HTS, 10 μM): Q4 | Fibrin % cell toxicity (primary rat microglia [4]; [13]): 0% | inhibition at 10 µM [5, 14]: 1%

C[C@@H]1O[C@@H](OC[C@H]2O[C@@H](Oc3c(-c4ccc(OCCO)c(OCCO)c4)oc4cc(OCCO)cc(O)c4c3=O)[C@H](O)[C@@H](O)[C@@H]2O)[C@H](O)[C@H](O)[C@H]1O [Troxerutin]
LPS % cell toxicity (primary rat microglia [1]; [6]): 0% | inhibition at 10 µM [2, 7]: 8% | Quadrant (FIG. 5b) [3, 8]: Q4 | Fibrin % cell toxicity (primary rat microglia [4]; [9]): 0% | inhibition at 10 µM [5, 10]: -10%

O=C(O)CCc1nc(-c2ccccc2)c(-c2ccccc2)o1 [Oxaprozin]
LPS % cell toxicity (primary rat microglia [1]; [20]): 1% | inhibition at 10 µM [2, 21]: 15% | Quadrant (FIG. 5b) [3, 17]: Q4 | Fibrin % cell toxicity (primary rat microglia [4]; [22]): 1% | inhibition at 10 µM [5, 23]: 0%

NC(=O)c1ccc[n+]([C@@H]2O[C@H](COP(=O)([O-])OP(=O)(O)OC[C@H]3O[C@@H](n4cnc5c(N)ncnc54)[C@H](O)[C@@H]3O)[C@@H](O)[C@H]2O)c1 [Nadide]
LPS % cell toxicity (primary rat microglia [1]; [20]): 0% | inhibition at 10 µM [2, 21]: 5% | Quadrant (FIG. 5b) [3, 17]: Q4 | Fibrin % cell toxicity (primary rat microglia [4]; [22]): 1% | inhibition at 10 µM [5, 23]: -14%

CO/N=C(\C(=O)N[C@@H]1C(=O)N2C(C(=O)OCOC(=O)C(C)(C)C)=C(/C=C\c3scnc3C)CS[C@H]12)c1csc(N)n1 [Cefditorin Pivoxil]
LPS % cell toxicity (primary rat microglia [1]; [11]): 1% | LPS % inhibition [2, 12]: 21% | Quadrant (FIG. 5b) ([3]; primary HTS, 10 μM): Q4 | Fibrin % cell toxicity (primary rat microglia [4]; [13]): 1% | Fibrin % inhibition [5, 14]: 2%

CC(=O)OCC1=C(C(=O)[O-])N2C(=O)[C@@H](NC(=O)CCCC(N)C(=O)O)[C@H]2SC1.[Na+] (some centres unmarked) [Cephalosporin C Sodium]
LPS % cell toxicity (primary rat microglia [1]; [11]): 0% | LPS % inhibition [2, 12]: 8% | Quadrant (FIG. 5b) ([3]; primary HTS, 10 μM): Q4 | Fibrin % cell toxicity (primary rat microglia [4]; [13]): 1% | Fibrin % inhibition [5, 14]: −34%

CC[C@H](C)C(=O)O[C@H]1CCC=C2C=C[C@H](C)[C@H](CC[C@@H]3C[C@@H](O)CC(=O)O3)[C@H]21 [Compactin, Mevastatin]
LPS % cell toxicity (primary rat microglia [1]; [20]): 2% | LPS % inhibition ([2]; primary microglia HTS, LPS stimulation, increased cell size (>800 μm^2) as marker of activation): 89% | Quadrant (FIG. 5b) [3, 17]: Q2 | Fibrin % cell toxicity (primary rat microglia [4]; [22]): 3% | Fibrin % inhibition [5, 23]: 105%

CC#CCC(C)[C@H](O)/C=C/[C@@H]1[C@H]2C/C(=C/CCCC(=O)O)C[C@H]2C[C@H]1O (some centres unmarked) [Iloprost]
LPS % cell toxicity (primary rat microglia [1]; [15]): 0% | inhibition at 10 µM [2, 16]: -1% | Quadrant (FIG. 5b) [3, 17]: Q4 | Fibrin % cell toxicity (primary rat microglia [4]; [18]): 1% | inhibition at 10 µM [5, 19]: 23%

O=P(O)(O)C(Cl)(Cl)P(=O)(O)O [Clodronate]
LPS % cell toxicity (primary rat microglia [1]; [11]): 0% | inhibition at 10 µM [2, 12]: 1% | Quadrant (FIG. 5b) ([3]; primary HTS, 10 μM): Q4 | Fibrin % cell toxicity (primary rat microglia [4]; [13]): 1% | inhibition at 10 µM [5, 14]: -15%

CC(=O)OCC1=C(C(=O)O)N2C(=O)[C@@H](NC(=O)Cc3cccs3)[C@H]2SC1 [Cefalotin]
LPS % cell toxicity (primary rat microglia [1]; [11]): 0% | inhibition at 10 µM [2, 12]: 1% | Quadrant (FIG. 5b) ([3]; primary HTS, 10 μM): Q4 | Fibrin % cell toxicity (primary rat microglia [4]; [13]): 1% | inhibition at 10 µM [5, 14]: 1%

Cc1cc(CC(=O)O)n(C)c1C(=O)c1ccc(Cl)cc1 [Zomepirac]
LPS % cell toxicity (primary rat microglia [1]; [6]): 0% | inhibition at 10 µM [2, 7]: 10% | Quadrant (FIG. 5b) [3, 8]: Q4 | Fibrin % cell toxicity (primary rat microglia [4]; [9]): 1% | inhibition at 10 µM [5, 10]: -4%

c1ccc(CC2=NCCN2)cc1 [Tolazoline, Priscoline]
LPS % cell toxicity (primary rat microglia [1]; [6]): 0% | LPS % inhibition [2, 7]: 17% | Quadrant (FIG. 5b) [3, 8]: Q4 | Fibrin % cell toxicity (primary rat microglia [4]; [9]): 0% | Fibrin % inhibition [5, 10]: −90%

CO/N=C1\CN(c2nc3c(cc2F)c(=O)c(C(=O)O)cn3C2CC2)CC1CN (centres unmarked) [Gemifloxacin]
LPS % cell toxicity (primary rat microglia [1]; [15]): 0% | inhibition at 10 µM [2, 16]: 6% | Quadrant (FIG. 5b) [3, 17]: Q4 | Fibrin % cell toxicity (primary rat microglia [4]; [18]): 0% | inhibition at 10 µM [5, 19]: -34%

CCOC(=O)[C@H](CCc1ccccc1)N[C@@H](C)C(=O)N1Cc2cc(OC)c(OC)cc2C[C@H]1C(=O)O [Moexipril]
LPS % cell toxicity (primary rat microglia [1]; [20]): 1% | inhibition at 10 µM [2, 21]: 9% | Quadrant (FIG. 5b) [3, 17]: Q4 | Fibrin % cell toxicity (primary rat microglia [4]; [22]): 1% | inhibition at 10 µM [5, 23]: -29%

CC(C)/N=c1\cc2n(-c3ccc(Cl)cc3)c3ccccc3nc-2cc1Nc1ccc(Cl)cc1 [Clofazimine]
LPS % cell toxicity (primary rat microglia [1]; [11]): 0% | inhibition at 10 µM [2, 12]: 15% | Quadrant (FIG. 5b) ([3]; primary HTS, 10 μM): Q4 | Fibrin % cell toxicity (primary rat microglia [4]; [13]): 1% | inhibition at 10 µM [5, 14]: 23%

CN(C)C(=O)Oc1cccc([N+](C)(C)C)c1 [Neostigmine]
LPS % cell toxicity (primary rat microglia [1]; [20]): 0% | inhibition at 10 µM [2, 21]: 15% | Quadrant (FIG. 5b) [3, 17]: Q4 | Fibrin % cell toxicity (primary rat microglia [4]; [22]): 0% | inhibition at 10 µM [5, 23]: -15%

Chiniofon
LPS % cell toxicity (primary rat microglia [1]; [11]): 1% | LPS % inhibition [2, 12]: −1% | Quadrant (FIG. 5b) ([3]; primary HTS, 10 μM): Q4 | Fibrin % cell toxicity (primary rat microglia [4]; [13]): 1% | Fibrin % inhibition [5, 14]: −52%

Cc1c(C)c2c(c(C)c1O)CCC(C)(COc1ccc(CC3SC(=O)NC3=O)cc1)O2 (centres unmarked) [Troglitazone]
LPS % cell toxicity (primary rat microglia [1]; [6]): 0% | inhibition at 10 µM [2, 7]: 4% | Quadrant (FIG. 5b) [3, 8]: Q4 | Fibrin % cell toxicity (primary rat microglia [4]; [9]): 1% | inhibition at 10 µM [5, 10]: -22%

Reference: patent publication US20210330611A1, “THERAPY FOR NEUROLOGICAL DISEASES/DISORDERS” (priority 2020, published 2021)
